In US11214554B2, “Indoleamine 2,3-dioxygenase inhibitor, method for preparation and use thereof” (NANJING HUAWE MEDICINE TECHNOLOGY GROUP CO., LTD., priority 2018, dated 2022):
pIC50: −log10 of the molar value.

target: IDO protease in highly expressed HeLa cells (Homo sapiens (Human), UniProt P14902); experiment: Inhibitory activity of compounds on IDO protease in highly expressed HeLa cells; format: cell-based; conditions: highly expressed HeLa cell line
Method: This method was used to determine the inhibitory effect of the compounds of the invention on the inhibitory activity of IDO protease in highly expressed HeLa cells.
Highly expressed HeLa cell line
a.) 50 μL of 30% trichloroacetic acid was added.
b.) The mixture was reacted in a constant temperature water tank at 52° C. for 30 minutes.
c.) The above mixture was centrifuge at 12,000 g for 10 minutes at room temperature.
d.) 100 μL of the supernatant was mixed with 100 μL of Ehrlich reagent.
e.) the absorbance was measured at 480 nm using an M5 microplate reader.
The software Graphpad Prism 5 was used with the calculation formula of log(inhibitor) vs. normalized response to perform IC50 curve fitting and the IC50 value was calculated.

Sequence of IDO protease in highly expressed HeLa cells (P14902 whole entry): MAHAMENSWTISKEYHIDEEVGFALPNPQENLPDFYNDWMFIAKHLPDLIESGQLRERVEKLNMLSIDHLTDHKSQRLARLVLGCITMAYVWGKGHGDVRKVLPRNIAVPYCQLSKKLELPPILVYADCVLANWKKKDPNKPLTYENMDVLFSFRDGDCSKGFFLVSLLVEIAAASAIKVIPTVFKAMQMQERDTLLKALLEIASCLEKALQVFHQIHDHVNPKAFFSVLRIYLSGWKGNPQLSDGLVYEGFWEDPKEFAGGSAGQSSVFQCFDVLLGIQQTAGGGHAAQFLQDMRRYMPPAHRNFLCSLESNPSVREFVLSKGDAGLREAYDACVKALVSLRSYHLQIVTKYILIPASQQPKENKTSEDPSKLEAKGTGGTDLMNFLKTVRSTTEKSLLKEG

SMILES | pIC50
NS(=O)(=O)NC1(CONc2nonc2/C(=N/O)Nc2ccc(F)c(Br)c2)CC1 [Compound I-20] | 8.10
CC(N/C(=N\O)c1nonc1NOCCNS(N)(=O)=O)c1ccccc1 (stereo not drawn) [Compound I-27] | 7.59
NS(=O)(=O)NC(CO)CONc1nonc1/C(=N/O)Nc1ccc(F)cc1 (stereo not drawn) [Compound I-23] | 7.42
O/N=C(\Nc1ccc(F)c(Br)c1)c1nonc1NOCCONc1nonc1/C(=N/O)Nc1ccc(F)c(Br)c1 [Compound I-43] | 7.42
NS(=O)(=O)NCCONc1nonc1/C(=N/O)Nc1ccc(F)c(Br)c1 [Compound I-24] | 8.30

More lines, now with the values ahead:

pIC50 | SMILES
7.46 | NC(CCONc1nonc1/C(=N/O)Nc1ccc(F)c(Br)c1)C(=O)O (stereo not drawn) [Compound I-16]
7.68 | O=C(CCC1CCC(ONc2nonc2/C(=N/O)Nc2ccc(F)c(F)c2)CC1)Nc1ccc(F)cc1 (stereo not drawn) [Compound I-50]

test system: not listed separately; experiment: Pharmacokinetic evaluation in SD rats after oral administration by single gavage; format: in vivo; conditions: rat; female SD rats, PO 75 mg/kg, plasma
Method: 1. Experimental animals: 100 (half male and half female) SPF grade SD rats were purchased from Shanghai Cypre-Bikai Experimental Animal Co., Ltd. Among them, 72 medically qualified and healthy SD rats without abnormality (half male and half female) were used for the study. 2. Animal Administration
72 SD rats (half male and half female) were tested according to the following table. The drug samples were stirred at least 10 minutes before administration.
Blood samples were obtained through the jugular vein puncture, and each sample was collected for about 0.25 mL and added with heparin sodium for anticoagulation. The blood sampling was performed at time points as follows:
for oral administration group, before administration, 0.25 h, 0.5 h, 1 h, 2 h, 4 h, 6 h, 8 h, 24 h after administration.
After collection, the blood samples were placed on ice and the plasma was separated by centrifugation (centrifugation conditions: 8000 rpm, 6 minutes, 2-8° C.). The collected plasma was stored at −80° C. before analysis. Plasma samples were analyzed by the analysis department of the experimental institution using LC-MS/MS for the content of the test compound in the rat plasma. The LLOQ of the detection substance was 1 ng/mL.
According to the blood plasma concentration data of the drugs, the pharmacokinetic calculation software WinNonlin5.2 non-compartmental model was used to calculate the pharmacokinetic parameters AUC0-t, Cmax, Tmax, T1/2 d and other parameters of the test samples and their average value and standard deviation.
When pharmacokinetic parameters were calculated for samples with lower concentration than the lower limit of quantification, samples taken before the curve reached Cmax should be calculated with zero value, and samples taken after the curve reached Cmax should be calculated with non-quantitative (BLQ).
The main pharmacokinetic parameters of compounds in SD rats plasma after oral administration by single gavage

SMILES | AUC(0-inf) [ng·h/mL] | Cmax [ng/mL] | Tmax [h]
NS(=O)(=O)NC1(CONc2nonc2/C(=N/O)Nc2ccc(F)c(Br)c2)CC1 [Compound I-20] | 1990 | 3330 | 0.5
NS(=O)(=O)NCCONc1nonc1/C(=N/O)Nc1ccc(F)c(Br)c1 [Compound I-24] | 18700 | 7240 | 1

Further lines, results first:

AUC(0-inf) [ng·h/mL] | Cmax [ng/mL] | Tmax [h] | SMILES
11300 | 3410 | – | NS(=O)(=O)NCCNc1nonc1C(=NO)Nc1ccc(F)c(Br)c1 [INCB024360, Epacadostat, reference compound]
7540 | 4240 | 1 | O=C(NCCONc1nonc1/C(=N/O)Nc1ccc(F)c(Br)c1)Nc1cc(F)cc(F)c1 [Compound I-40]

same assay, conditions: rat; female SD rats, PO 75 mg/kg, plasma; read-out: t½ (converted)

SMILES | half-life [h]
NS(=O)(=O)NC1(CONc2nonc2/C(=N/O)Nc2ccc(F)c(Br)c2)CC1 [Compound I-20] | 1.42
NS(=O)(=O)NCCONc1nonc1/C(=N/O)Nc1ccc(F)c(Br)c1 [Compound I-24] | 2.34

Results, then the compound that gave them:

half-life [h] | SMILES
2.51 | NS(=O)(=O)NCCNc1nonc1C(=NO)Nc1ccc(F)c(Br)c1 [INCB024360, Epacadostat, reference compound]
1.45 | O=C(NCCONc1nonc1/C(=N/O)Nc1ccc(F)c(Br)c1)Nc1cc(F)cc(F)c1 [Compound I-40]

same assay, conditions: rat; male SD rats, PO 75 mg/kg, plasma

SMILES | AUC(0-inf) [ng·h/mL] | Cmax [ng/mL] | Tmax [h]
NS(=O)(=O)NC1(CONc2nonc2/C(=N/O)Nc2ccc(F)c(Br)c2)CC1 [Compound I-20] | 2390 | 4240 | 1
NS(=O)(=O)NCCONc1nonc1/C(=N/O)Nc1ccc(F)c(Br)c1 [Compound I-24] | 20700 | 8760 | 1

Now from value to compound:

AUC(0-inf) [ng·h/mL] | Cmax [ng/mL] | Tmax [h] | SMILES
12200 | 3940 | 0.5 | NS(=O)(=O)NCCNc1nonc1C(=NO)Nc1ccc(F)c(Br)c1 [INCB024360, Epacadostat, reference compound]
8250 | 4760 | 1 | O=C(NCCONc1nonc1/C(=N/O)Nc1ccc(F)c(Br)c1)Nc1cc(F)cc(F)c1 [Compound I-40]

same assay, conditions: rat; male SD rats, PO 75 mg/kg, plasma; read-out: t½ (converted)

SMILES | half-life [h]
NS(=O)(=O)NC1(CONc2nonc2/C(=N/O)Nc2ccc(F)c(Br)c2)CC1 [Compound I-20] | 1.98
NS(=O)(=O)NCCONc1nonc1/C(=N/O)Nc1ccc(F)c(Br)c1 [Compound I-24] | 2.12

Results, then the compound that gave them:

half-life [h] | SMILES
2.24 | NS(=O)(=O)NCCNc1nonc1C(=NO)Nc1ccc(F)c(Br)c1 [INCB024360, Epacadostat, reference compound]
1.67 | O=C(NCCONc1nonc1/C(=N/O)Nc1ccc(F)c(Br)c1)Nc1cc(F)cc(F)c1 [Compound I-40]

target: IDO1 enzyme (Homo sapiens (Human), UniProt P14902); experiment: Determination of the IDO1 inhibitory activity of compounds (enzyme assay, absorbance at 480 nm); format: biochemical; conditions: 50 nM IDO1, 37° C., 30 minutes, pH 6.5, 1% DMSO; average of two tests
Sequence (P14902 whole entry, species assumed): as the sequence (P14902 whole entry) above
Method: 100 mM PBS containing 400 μM L-tryptophan, 20 mM ascorbate, 20 μM methylene blue and 1000 U/ml catalase, pH 6.5
All compounds were dissolved with DMSO. During the assay, each compound was diluted to a concentration as needed. The compound of each concentration was added to multi-wells, and the final concentration of DMSO was controlled at 1%.
a.) the reaction mixture was prepared by adding 50 nM IDO1 and the desired concentration of the test compound to 100 μL of IDO1 assay buffer. IDO1 and assay buffer need to be preheated to 37° C.
b.) The mixture was reacted in a constant temperature water tank at 37° C. for 30 minutes.
c.) 50 μL of 30% trichloroacetic acid was added.
d.) The above mixture was reacted in a constant temperature water tank at 52° C. for 30 minutes.
e.) The reaction mixture was centrifuged at 12000 g for 10 minutes at room temperature.
f.) 100 μL of the obtained supernatant and 100 μL of Ehrlich reagent were mixed.
g.) the absorbance at 480 nm was measured using an M5 microplate reader.
4. Data Analysis Inhibition rate=(ODpostive−ODsample)/(ODpositive−ODnegative)*100% 5. Results and Discussion
In this experiment, the inhibitory activity of the test compounds on the IDO1 enzyme was tested. Compounds of each diluted concentration were tested in multi-wells. The final concentration of the reaction system in DMSO was controlled to 1%. The inhibition rate was tested twice, and the average value was taken.

SMILES | pIC50
NS(=O)(=O)NC1(CONc2nonc2/C(=N/O)Nc2ccc(F)c(Br)c2)CC1 [Compound I-20] | 7.74
COC(=O)CSNc1nonc1/C(=N/O)Nc1ccc(F)cc1 [Compound I-51] | 7.08
O/N=C(\Nc1ccc(F)c(F)c1)c1nonc1NOC1CCC(O)CC1 (stereo not drawn) [Compound I-35] | 7.03
O=C1NC(=O)C2(CCC(ONc3nonc3/C(=N/O)Nc3ccc(F)c(F)c3)CC2)N1 (stereo not drawn) [Compound I-49] | 7.18
CC(N/C(=N\O)c1nonc1NOCCNS(N)(=O)=O)c1ccccc1 (stereo not drawn) [Compound I-27] | 7.38
CS(=O)(=O)NCCONc1nonc1/C(=N/O)Nc1ccc(F)c(F)c1 [Compound I-13] | 6.91
O=C(NCCONc1nonc1/C(=N/O)Nc1ccc(F)c(C(F)(F)F)c1)c1ccc(F)cc1 [Compound I-9] | 7.07
NS(=O)(=O)NC(CO)CONc1nonc1/C(=N/O)Nc1ccc(F)cc1 (stereo not drawn) [Compound I-23] | 7.44
O/N=C(\Nc1ccc(F)c(Br)c1)c1nonc1NOCCONc1nonc1/C(=N/O)Nc1ccc(F)c(Br)c1 [Compound I-43] | 7.46
NS(=O)(=O)NCCONc1nonc1/C(=N/O)Nc1ccc(F)c(Br)c1 [Compound I-24] | 8.10
NS(=O)(=O)NC1CCC(ONc2nonc2/C(=N/O)Nc2ccc(F)c(F)c2)CC1 (stereo not drawn) [Compound I-31] | 7.38
O=C(O)CCCONc1nonc1/C(=N/O)Nc1ccc(F)c(Br)c1 [Compound I-18] | 6.74

Other lines, results leading:

pIC50 | SMILES
7.11 | NS(=O)(=O)NOCCONc1nonc1/C(=N/O)Nc1ccc(F)c(Br)c1 [Compound I-44]
7.03 | OCCCONc1nonc1/C(=N/O)Nc1ccc(F)c(Cl)c1 [Compound I-15]
7.05 | Nc1ncc(C(=O)NCCONc2nonc2/C(=N/O)Nc2ccc(F)c(Cl)c2)s1 [Compound I-10]
6.95 | O/N=C(\Nc1ccc(F)c(C(F)(F)F)c1)c1nonc1NOCCc1cccs1 [Compound I-7]
7.19 | COC(=O)C(CCONc1nonc1/C(=N/O)Nc1ccc(F)c(F)c1)NS(N)(=O)=O (stereo not drawn) [Compound I-22]
7.04 | NS(=O)(=O)NCCCCONc1nonc1/C(=N/O)Nc1ccc(F)c(Br)c1 [Compound I-26]
7.11 | O/N=C(\Nc1ccc(F)c(F)c1)c1nonc1N1CCCCO1 [Compound I-38]
7.09 | OCCONc1nonc1/C(=N/O)Nc1ccc(F)c(Br)c1 [Compound I-14]
6.85 | O/N=C(\Nc1ccc(F)c(F)c1)c1nonc1NOC1CCCCO1 (stereo not drawn) [Compound I-39]
7.38 | NC(CCONc1nonc1/C(=N/O)Nc1ccc(F)c(Br)c1)C(=O)O (stereo not drawn) [Compound I-16]
7.03 | Cc1ccc(CCONc2nonc2/C(=N/O)Nc2ccc(F)c(Br)c2)cc1 [Compound I-8]
7.17 | NS(=O)(=O)NCCONc1nonc1/C(=N/O)NCc1ccccc1 [Compound I-25]
7.55 | O=C(CCC1CCC(ONc2nonc2/C(=N/O)Nc2ccc(F)c(F)c2)CC1)Nc1ccc(F)cc1 (stereo not drawn) [Compound I-50]
